Test system: sickle pod
Assay: Test Example 1: foliar spray herbicide effect on sickle pod in greenhouse pots
Format: in vivo, sickle pod (Cassia obtusifolia)
Details: evaluated 5 days after treatment, scale 0-10
Method: Evaluation of phytotoxicity against a crop was shown by “no” when almost no phytotoxicity was observed, “low” when a low level phytotoxicity was observed, “medium” when a medium level phytotoxicity was observed and “high” when a high level phytotoxicity was observed.
A plastic pot of 11 cm in diameter and 8 cm in depth was filled with field soil. A seed of sickle pod was sown and grown in a greenhouse for 28 days.
An emulsion of Compound A-1 was prepared by sufficiently mixing 5 parts of Compound A-1, 6 parts of Sorpol 3005X (surfactant, produced by Toho Chemical) and 89 parts of xylene.
Each of • single use of an emulsion of Compound A-1, • single use of an emulsion of Oxyfluorfen (commercial name: Goal, produced by Rohm & Hass Co., containing 23% of Oxyfluorfen), and • a mixed composition of an emulsion of Compound A-1 and an emulsion of Oxyfluorfen, • were diluted with water containing 1% Agri-dex (produced by Helena). Respective dilutions were uniformly sprayed from upper side onto foliages of sickle pod grown as described above with a small sprayer such that the amounts of the active ingredients were the amounts shown in Table 4.
After the treatment, they were raised in a greenhouse for 5 days and the effect against weeds was evaluated.

SMILES: CCOc1cc(Oc2ccc(C(F)(F)F)cc2Cl)ccc1[N+](=O)[O-] [Oxyfluorfen, 2-chloro-1-(3-ethoxy-4-nitrophenoxy)-4-(trifluoromethyl)benzen]
- Herbicide Effect sickle pod (500 g/ha active ingredient): 3
- Herbicide Effect sickle pod (2000 g/ha active ingredient): 3

From patent publication US7655598B2, “Herbicide composition” (Sumitomo Chemical Company, Limited, priority 2001, dated 2010)
